The text below walks through data of patent US6525089B1, “Pharmaceutical composition containing decursin” (Binex Co., Ltd., priority 1998, dated 2003).

In data set [1] the test system is U-937 cells. Briefly: NBT reduction test. The data set is classed as cell-based, human. The note with it: 1 × 10^−7M, incubated 4 days. As to the method:
(§1) U-937 cells were plated on a cell culture dish at a concentration of 2×10^5 cells/ml in a medium containing 10^−7M decursin and incubated in a 5% CO2 incubator at 37° C.
In the nitrobluetetrazolium (NBT) reduction test, cell solution (about 1×10^6 cells/ml) was well stirred and pelleted by centrifugation at 2000 rpm for 5 minutes. The pellets were suspended in 0.5 ml of medium, followed by the addition of a mixing solution (0.5 ml) containing 10^−6M formyl-methionine leucine phenylalanine (fMLP) and NBT 1.0 mg/DPBSml (1:9). The mixture was incubated at 37° C. for 30 minutes. The reaction was stopped in ice bath and centrifuged at 2000 rpm for 5 minutes. The supernatant was removed and then 200 μl of DPBS was added. The solution was lightly swayed and checked under a microscope to observe a minimum number of 200 cells. The number of NBT (+) cells was calculated by percentage.
The differentiation was investigated by using the fact that the differentiated leukocyte cells may generate superoxide anion by stimulation. […] The cultured mixture, which was reacted with superoxide, was reduced to form a precipitate. Then NBT was added to the precipitate (Table 7).

Data set [2] relates to U-937 cells. Briefly: Esterase activity test: naphthol AS-D chloroacetate esterase. Format: cell-based, human. The following applies: percentage of cells showing activity. The procedure: To determine naphthol AS-D chloroacetate esterase activity, the cultured solution of U-937 cells was pelleted by centrifugation at 2000 rpm for 5 minutes, followed by the addition of 100 μl PBS to prepare a cell-concentrated solution. A drop of the cell solution was put on a slide glass and dried for more than 1 hour. Then 40 ml of deionized water was preheated at 37° C. 1 ml of […] solution was mixed with 1 ml of Fast Red Violet LB base solution and left for 2 minutes. The mixture was added to 40 ml of preheated deionized water. After the addition of 5 ml of TRIZMAL TM 6.3) buffer solution (Sigma Co. T-3128) and 1 ml of naphthol AS-D chloroacetate solution, the resulting solution, which was turned to red color was poured on a petri dish. The cells on a slide glass were fixed with citrate-acetone-formaldehyde solution, (CAF solution) at room temperature. The cells were soaked in the previously prepared solution and incubated at 37° C. for 30 minutes at a dark place. The cells were completely washed with deionized water for more than 2 minutes and counterstained with hematoxylin solution for 2 minutes, washed with tap water and dried in the air. After completely dried, the cells were observed under a microscope to calculate the reddish cell numbers by percentage.
(§2) Thus it was considered that the cells were differentiated into macrophage.like cells by the action of decursin.

Data set [3] relates to U-937 cells. Nature of the data set: Esterase activity test: α-naphthyl acetate esterase. The data set is classed as cell-based, human. The following applies: percentage of cells showing activity. As to the method: To determine α-naphthyl acetate esterase activity in the esterase activity test, the cultured solution of U-937 cells was pelleted by centrifugation at 2000 rpm for 5 minutes, followed by the addition of 100 μl PBS to prepare a cell-concentrated solution. A drop of the cell solution was put on a slide glass and dried for more than 1 hour. Then 40 ml of deionized water was preheated at 37° C. 1 ml of […] solution was mixed with 1 ml of Fast Blue BB base solution and left for 2 minutes. The mixture, being turned to yellow color with thick brown, was added to 40 ml of the preheated deionized water. After the addition of 5 ml of TRIZMAL TM 7.6 buffer solution (Sigma Co. 870-2) and 1 ml of α-naphthyl acetate solution, the resulting solution, which was turned to green color, was poured into a petri dish. The cells on a slide glass were fixed with citrate-acetone-formaldehyde solution (CAF solution) at room temperature. The cells were soaked in the previously prepared solution and incubated at 37° C. for 30 minutes at a dark place. The cells were completely washed with deionized water for more than 2 minutes and counterstained with hematoxylin solution for 2 minutes, washed with tap water and dried in the air. After completely dried, the cells were observed under a microscope to determine the blackish cell numbers.
as §2

Data set [4] deals with U-937 cells. Briefly: Phagocytosis test. The data set is classed as cell-based, human. The note with it: 1 × 10^−7M, incubated 4 days. The procedure:
as §1
In the phagocytosis test, 10^6 cells were well stirred and pelleted by centrifugation at 2000 rpm for 5 minutes. 1 ml of 0.2% serum free medium solution in polystyrene particle were added to the pellets, swayed and incubated at 37° C. for 4 hours. After being washed with phosphate buffered saline (PBS) three times, cell pellets were harvested and then about 200 μl of DPBS was added. The solution was lightly swayed and checked under a microscope to observe a minimum number of 200 cells. The number of cells containing the particles was calculated by percentage.
The results of phagocytosis test designed to assess the functional change according to differentiation of U-937 cells was shown in the following Table 8.

Data set [5] concerns U-937 cells. Briefly: Growth inhibition test (trypan blue exclusion). The following applies: 4 days (96 hours). Format: cell-based, human. As to the method:
U-937 cells, optioned from Korea Cell Line Bank, was cultured in RPMI 1640 medium (Sigma Co., R-6504) supplemented with 10% fetal bovine serum (FBS). The medium was exchanged every 5 day by 70%. U-937 cells were inoculated into a cell culture dish at concentration of 2×10^5 cells/ml. Then decursin added into the dish at concentration of 10^−8˜10^−6M, then the cells were cultured for 4 days. Trypan blue exclusion test was performed to determine the number of live cells using a hemacytometer, and the percentage of cancer-cell growth inhibition was calculated. Then, the differentiation was induced by treating with 10^−2M diluted ethanol solution containing various amount of decursin in the medium.

Data set [6] has as its system ICR mice. Briefly: BUN and MDA in blood and MDA in renal tissue, alloxan-treated mice. Format: in vivo. The note with it: alloxan 75 mg/kg i.v., saline for 10 days. The procedure: (§3) 2 days after ICR mice were given alloxan (75 mg/kg, i.v.), their glucose levels at fasting were measured to select high-glucose mice. The high-glucose mice were divided into two groups; physiological saline solution was given to one group, while decursin was orally administered to the other group at a dose of 50 mg/kg for 10 days. The alloxan-free group was also orally given physiological saline solution for 10 days. The body weighs were checked periodically, together with urinary tests. To isolate their sera and kidney, mice were slightly anesthetized with ether and their abdomens were dissected. The blood samples were collected from heart to isolate the sera. The kidney was perfused with 0.9% NaCl and isolated after removal of the blood. Then the weight of right kidney was measured. Further, to measure the protein amount from the kidney tissues, these tissues were assayed according to the Bradford method using Bio-Rad protein assay kit in the presence of bovine serum albumin as a reference standard. To measure the MDA in the kidney tissues, 0.4 ml of 10% sodium dodecylsulfate was added to 0.5 ml of 10% kidney-tissue homogenization solution and left in water bath at 37° C. for 30 minutes; With the subsequent addition of 0.1N-HCl (2 ml) and 0.67% TBA (1 ml), the mixture was voltexed and left in boiling water bath for 30 minutes. The mixture was further cooled in ice bath for 2˜3 minutes to stop the reaction. Then 2 ml of n-butanol was added to the mixture, stirred well and centrifuged at 3000 rpm for 10 minutes. The supernatant was collected to measure the absorbance at 532 nm. 10 μg/ml tetraethoxypropane (TEP) was employed as a reference standard. To measure the MDA in sera, 0.8% thiobarbituric acid (TBA) was added to 0.5 ml of sera and left in boiling water bath for 30 minutes. The mixture was further cooled in ice bath for 2˜3 minutes to stop the reaction. The supernatant was collected to measure the absorbance at 532 nm. 10 μg/ml TEP was employed as a reference standard.
Mice were orally given decursin at a dose of 50 mg/kg for 10 days continuously. Then various parameters such as BUN and MDA in the blood as a marker of renal failure were measured, together with urinary test. When […] (table 4), the BUN value of single alloxan-treated group, 17.4±3.7 mg/dl was recovered to the normal level (4.8±0.6 mg/dl) by the treatment of decursin. The MDA value of single alloxan-treated group, 0.51±0.07, was reduced to 0.36±0.03 by the treatment of decursin, which was similar to a normal control group. Thus it was noted that the damage in the kidney was completely recovered. Since the reduction of both MDA values in the blood and kidney tissues may be clinically reasonable and desirable, the MDA value in the kidney tissues was measured. As a result, the MDA value in the kidney tissues of a single alloxan-treated group, 13.24±5.93, was reduced to 5.63±0.99 by the treatment of decursin, which was lower than that of normal control group (8.44±1.01).

In data set [7] the test system is ICR mice. Briefly: Urinary test, alloxan-treated mice. The data set is classed as in vivo. The note with it: Alloxan group. The procedure: as §3

As for `C=C1CC[C@H](O)C/C1=C/C=C1\CCC[C@]2(C)[C@@H]([C@H](C)CCCC(C)C)CC[C@@H]12` [Vitamin D3, reference compound], the results for the “NBT reduction test: positive cells” value in data set [1] and in data set [1] (listed as vitamin D3) were 39.0 ± 2.1% and 39%, respectively. Besides, in data set [2], the “Naphtol AS-D chloroacetate esterase Activity (%)” value worked out at 0.0%. Further, the “α-Naphtylacetate esterase Activity (%)” value worked out at 79.3 ± 4.5% in data set [3] and 80% in data set [3] (listed as vitamin D3). In addition, the results for the “Phagocytosis test: cells showing phagocytosis activity” value in data set [4] and in data set [4] (listed as vitamin D3) were 25.8 ± 1.3% and 25.8%, respectively. For the same compound, the “Growth inhibition rate (%)” value in data set [5] (1 × 10^−6M) is reported as 54.0 ± 6.7%; in data set [5] (1 × 10^−7M), 42.5 ± 6.4%; in data set [5] (1 × 10^−8M), 26.0 ± 5.7%; in data set [5] (5 × 10^−7M), 48.0 ± 6.0%; in data set [5] (5 × 10^−8M), 33.5 ± 0.7%.

Take `O=C1NC(=O)C(=O)C(=O)N1` [alloxan]: in data set [6], the BUN is 17.4 ± 3.7 mg/dL, the MDA in blood is 0.51 ± 0.07 µg/mL and the “MDA in renal tissue” value is 13.24 ± 5.93 µg/g. In addition, in data set [7], the “Urinary test Bilirubin: count in category +” value is reported as 2, the “Urinary test Bilirubin: count in category ++” value is 6, the “Urinary test Bilirubin: count in category +++” value stood at 2 and the “Urinary test Glucose: count in category ++” value is 10. Further, in data set [7], the “Urinary test Ketone: count in category ±” value is on record as 3, the “Urinary test Ketone: count in category −” value turned out to be 7, the “Urinary test Nitrite: count in category +” value turned out to be 4 and the “Urinary test Nitrite: count in category −” value is recorded as 6. In data set [7], the “Urinary test Occult blood: count in category ++” value came out at 2, the “Urinary test Occult blood: count in category +++” value is given as 8, the “Urinary test Protein: count in category −” value worked out at 10 and the “Urinary test Specific gravity: count in category ++” value came out at 1. In data set [7], the “Urinary test Specific gravity: count in category +++” value was found to be 9, the “Urinary test Urobilinogen: count in category +” value stood at 10 and the “Urinary test pH: count in category ±” value is on record as 10.
